EP4273147A1, “SUBSTITUTED SPIROLACTAMS, SALTS THEREOF AND THEIR USE AS HERBICIDALLY ACTIVE SUBSTANCES” (Bayer Aktiengesellschaft, priority 2022, dated 2023)

Tests used:
ABUTH [1] = experiment: Herbicidal pre-emergence action (Table A1); assay type: in vivo, Abutilon theophrasti; settings: application rate 1280 g/ha; visual grading after ca. 3 weeks vs untreated controls (100% = plants have died off, 0% = as control plants)
Outline: (§1)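 Paired sowings (monocot weed with dicot weed) in potted sandy loam, seeds soil-covered.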

ECHCG [2] = experiment: Herbicidal pre-emergence action (Table A2); assay type: in vivo, Echinochloa crus-galli; settings: application rate 320 g/ha; visual grading after ca. 3 weeks
Outline: as §1

LOLRI [3] = experiment: Herbicidal pre-emergence action (Table A3); assay type: in vivo, Lolium rigidum; settings: Lolium rigidum, pre-emergence, 504 h, application rate 320 g/ha; visual grading after ca. 3 weeks; read-out: pre-emergence activity against LOLRI
Outline: as §1

MATIN [4] = experiment: Herbicidal pre-emergence action (Table A4); assay type: in vivo, Matricaria inodora; settings: application rate 320 g/ha; visual grading after ca. 3 weeks
Outline: as §1

SETVI [5] = experiment: Herbicidal pre-emergence action (Table A5); assay type: in vivo, Setaria viridis; settings: application rate 320 g/ha; visual grading after ca. 3 weeks
Outline: as §1

STEME [6] = experiment: Herbicidal pre-emergence action (Table A6); assay type: in vivo, Stellaria media; settings: application rate 320 g/ha; visual grading after ca. 3 weeks
Outline: as §1

POAAN [7] = experiment: Herbicidal pre-emergence action (Table A7); assay type: in vivo, Poa annua; settings: Poa annua, pre-emergence, 504 h; application rate 320 g/ha; visual grading after ca. 3 weeks; read-out: pre-emergence activity against POAAN
Outline: as §1

ALOMY [8] = experiment: Herbicidal pre-emergence action (Table A9); assay type: in vivo, Alopecurus myosuroides; settings: application rate 1280 g/ha; visual grading after ca. 3 weeks
Outline: as §1

KCHSC [9] = experiment: Herbicidal pre-emergence action (Table A10); assay type: in vivo, Kochia scoparia; settings: application rate 320 g/ha; visual grading after ca. 3 weeks
Outline: as §1

VERPE [10] = experiment: Herbicidal pre-emergence action (Table A11); assay type: in vivo, Veronica persica; settings: application rate 320 g/ha; visual grading after ca. 3 weeks
Outline: as §1

DIGSA [11] = experiment: Herbicidal pre-emergence action (Table A12); assay type: in vivo, Digitaria sanguinalis; settings: application rate 320 g/ha; visual grading after ca. 3 weeks
Outline: as §1

ABUTH [12] = experiment: Herbicidal post-emergence action (Table B1); assay type: in vivo, Abutilon theophrasti; settings: application rate 320 g/ha; treated at one-leaf stage; rated visually after about 3 weeks vs untreated controls (100% = plants have died, 0% = like control plants)
Outline: (§2)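 Plants grown from seed in a greenhouse are treated at the one-leaf stage, two to three weeks after sowing. They then stay under optimum growth conditions for about three weeks before herbicidal activity is scored visually on a 0–100% scale against untreated controls.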

ALOMY [13] = experiment: Herbicidal post-emergence action (Table B2); assay type: in vivo, Alopecurus myosuroides; settings: application rate 320 g/ha; rated visually after about 3 weeks
Outline: as §2

KCHSC [14] = experiment: Herbicidal post-emergence action (Table B4); assay type: in vivo, Kochia scoparia; settings: application rate 1280 g/ha; rated visually after about 3 weeks
Outline: as §2

LOLRI [15] = experiment: Herbicidal post-emergence action (Table B5); assay type: in vivo, Lolium rigidum; settings: application rate 1280 g/ha; rated visually after about 3 weeks
Outline: as §2

MATIN [16] = experiment: Herbicidal post-emergence action (Table B6); assay type: in vivo, Matricaria inodora; settings: application rate 320 g/ha; rated visually after about 3 weeks
Outline: as §2

POAAN [17] = experiment: Herbicidal post-emergence action (Table B7); assay type: in vivo, Poa annua; settings: application rate 320 g/ha
Outline: as §2

SETVI [18] = experiment: Herbicidal post-emergence action (Table B8); assay type: in vivo, Setaria viridis; settings: application rate 1280 g/ha
Outline: as §2

STEME [19] = experiment: Herbicidal post-emergence action (Table B9); assay type: in vivo, Stellaria media; settings: application rate 1280 g/ha
Outline: as §2

VERPE [20] = experiment: Herbicidal post-emergence action (Table B10); assay type: in vivo, Veronica persica; settings: application rate 320 g/ha
Outline: as §2

AMARE = experiment: Herbicidal post-emergence action (Table B11); assay type: in vivo, Amaranthus retroflexus; settings: application rate 1280 g/ha
Outline: as §2

ALOMY [21] = experiment: Herbicidal pre-emergence action, section C (Table C2); assay type: in vivo, Alopecurus myosuroides; settings: application rate 320 g/ha; visual grading after ca. 3 weeks
DIGSA [22] = experiment: Herbicidal pre-emergence action, section C (Table C5); assay type: in vivo, Digitaria sanguinalis; settings: application rate 80 g/ha; visual grading after ca. 3 weeks
ECHCG [23] = experiment: Herbicidal pre-emergence action, section C (Table C6); assay type: in vivo, Echinochloa crus-galli; settings: application rate 80 g/ha; visual grading after ca. 3 weeks
LOLRI [24] = experiment: Herbicidal pre-emergence action, section C (Table C7); assay type: in vivo, Lolium rigidum; settings: application rate 320 g/ha; visual grading after ca. 3 weeks
MATIN [25] = experiment: Herbicidal pre-emergence action, section C (Table C8); assay type: in vivo, Matricaria inodora; settings: application rate 320 g/ha; visual grading after ca. 3 weeks
Text: Seeds of mono- and dicotyledonous weed plants and crop plants were sown, in plastic or organic planting pots, in sandy loam and covered with soil. The compounds according to the invention, formulated in the form of wettable powders (WP) or as emulsifiable concentrates (EC), were applied to the surface of the covering soil as aqueous suspension or emulsion, with the addition of 0.5% of an additive, at an application rate of 600 1 of water/ha (converted). Following treatment, the pots were placed in a greenhouse and kept under optimum growth conditions for the test plants.

SETVI [26] = experiment: Herbicidal pre-emergence action, section C (Table C10); assay type: in vivo, Setaria viridis; settings: application rate 80 g/ha; visual grading after ca. 3 weeks
VERPE [27] = experiment: Herbicidal pre-emergence action, section C (Table C11); assay type: in vivo, Veronica persica; settings: application rate 320 g/ha; visual grading after ca. 3 weeks
VIOTR = experiment: Herbicidal pre-emergence action, section C (Table C12); assay type: in vivo, Viola tricolor; settings: application rate 320 g/ha; visual grading after ca. 3 weeks
ALOMY [28] = experiment: Herbicidal post-emergence action, section E (Table E2); assay type: in vivo, Alopecurus myosuroides; settings: application rate 320 g/ha; assessed visually after ca. 3 weeks
Text: (§3) 2 to 3 weeks after sowing, the test plants were sprayed in the single-leaf stage.

ECHCG [29] = experiment: Herbicidal post-emergence action, section E (Table E5); assay type: in vivo, Echinochloa crus-galli; settings: application rate 320 g/ha; assessed visually after ca. 3 weeks
Text: as §3

LOLRI [30] = experiment: Herbicidal post-emergence action, section E (Table E6); assay type: in vivo, Lolium rigidum; settings: application rate 320 g/ha; assessed visually after ca. 3 weeks
Text: as §3

SETVI [31] = experiment: Herbicidal post-emergence action, section E (Table E8); assay type: in vivo, Setaria viridis; settings: application rate 320 g/ha; assessed visually after ca. 3 weeks
Text: as §3

VERPE [32] = experiment: Herbicidal post-emergence action, section E (Table E9); assay type: in vivo, Veronica persica; settings: application rate 320 g/ha; assessed visually after ca. 3 weeks
Text: as §3

ZEAMX = experiment: Post-emergence effects on crop plants (Table F1); assay type: in vivo, Zea mays; settings: application rate 320 g/ha, crop plant ZEAMX
Text: as §3

TRZAS = experiment: Post-emergence effects on crop plants (Table F2); assay type: in vivo, Triticum aestivum; settings: application rate 80 g/ha, crop plant TRZAS
Text: as §3

ORYZA = experiment: Post-emergence effects on crop plants (Table F3); assay type: in vivo, Oryza sativa; settings: application rate 80 g/ha, crop plant ORYZA
Text: as §3

BRSNW = experiment: Post-emergence effects on crop plants (Table F5); assay type: in vivo, Brassica napus; settings: application rate 320 g/ha, crop plant BRSNW
Text: as §3

O=C1N(Cc2cccc(F)c2F)CCCC12CCCN(Cc1c(F)cccc1F)C2=O (racemic) [I-008, 8-[(2,3-difluorophenyl)methyl]-2-[(2,6-difluorophenyl)methyl]-2,8-diazaspiro[5.5]undecane-1,7-dione]
pre-emergence activity against ABUTH (ABUTH [1]): 90%
pre-emergence activity against ECHCG (ECHCG [2]): 100%
pest or weed control at 320 g/ha (LOLRI [3]): 100%
pre-emergence activity against MATIN (MATIN [4]): 100%
pre-emergence activity against SETVI (SETVI [5]): 100%
pre-emergence activity against STEME (STEME [6]): 90%
pest or weed control at 320 g/ha (POAAN [7]): 100%
pre-emergence activity against ALOMY (ALOMY [8]): 90%
pre-emergence activity against KCHSC (KCHSC [9]): 90%
pre-emergence activity against VERPE (VERPE [10]): 90%
pre-emergence activity against DIGSA (DIGSA [11]): 100%
post-emergence activity against ABUTH (ABUTH [12]): 90%
post-emergence activity against ALOMY (ALOMY [13]): 90%
post-emergence activity against KCHSC (KCHSC [14]): 90%
post-emergence activity against LOLRI (LOLRI [15]): 100%
post-emergence activity against MATIN (MATIN [16]): 90%
post-emergence activity against POAAN (POAAN [17]): 90%
post-emergence activity against SETVI (SETVI [18]): 90%
post-emergence activity against STEME (STEME [19]): 90%
post-emergence activity against VERPE (VERPE [20]): 90%
post-emergence activity against AMARE (AMARE): 90%
pre-emergence activity against ALOMY (ALOMY [21]): 90%
pre-emergence activity against DIGSA (DIGSA [22]): 100%
pre-emergence activity against ECHCG (ECHCG [23]): 100%
pre-emergence activity against LOLRI (LOLRI [24]): 90%
pre-emergence activity against MATIN (MATIN [25]): 80%
pre-emergence activity against SETVI (SETVI [26]): 100%
pre-emergence activity against VERPE (VERPE [27]): 80%
pre-emergence activity against VIOTR (VIOTR): 80%
post-emergence activity against ALOMY (ALOMY [28]): 90%
post-emergence activity against ECHCG (ECHCG [29]): 90%
post-emergence activity against LOLRI (LOLRI [30]): 90%
post-emergence activity against SETVI (SETVI [31]): 90%
post-emergence activity against VERPE (VERPE [32]): 80%
post-emergence activity against ZEAMX (ZEAMX): 0%
post-emergence activity against TRZAS (TRZAS): 0%
post-emergence activity against ORYZA (ORYZA): 0%
post-emergence activity against BRSNW (BRSNW): 0%
